Measured values reported in patent publication US20240285723A1, “COMBINATION COMPOSITIONS FOR THE TREATMENT OF PATHOGEN INFECTIONS AND ASSOCIATED COMPLICATIONS” (priority 2021, published 2024).
Where no end group is shown, it is not given here.

Legend:
[1] = tested on: patients with dcSSc or dermatomyositis; details: Phase II; dcSSc and dermatomyositis with active skin involvement; cited from earlier work
LPS-injected mice = assay: LPS-induced septic shock mouse model: survival and murine sepsis score (MSS); assay type: in vivo; details: for disease progression (MSS), compound alone / survival (MSS<3), compound alone: BCP 25 mg/kg or pregnenolone 10 mg/kg i.p. every 12 hrs from 24 h before LPS, n=7
Description: Male wild type 8-10 weeks old mice of inbred strain C57BL/6J-RCC were obtained from Envigo Ltd. All experiments were in accordance and with the approval of the institutional animal care and use committee of Tel-Aviv University for these experiments (permit number 01-20-022). The mice were divided into treatment groups 24 hours before LPS administration. All treatments were administered intraperitoneally (IP). OGP was administered at the indicated doses only twice, 24 hrs before LPS and right before the LPS at a dose of 0.5, 5 or 15 μg/kg. Olorinab was administered at 0.33, 1, or 5 mg/kg twice a day starting 24 hours before LPS. DHEA was injected once a day at a dose of 30 mg/kg, starting 24 hr before LPS injection. β-Caryophyllene (BCP or BCP, used herein interchangeably) and Pregnenolone were injected every 12 hours starting 24 h before the LPS injection. A single IP injection of LPS was administered at 25 μg/gr dose. This study had 2 control groups as indicated in the experiments below. One that received PBS instead of the LPS injection (‘PBS’), and one that received PBS instead of the treatments (CB2 agonist or steroid) before the LPS injection (‘LPS’). For humane reasons murine sepsis score (MSS) was used as a surrogate for survival (Mai et al. Intensive Care Med Exp, 2018 Jul. 27; 6(1):20. doi: 10.1186/s40635-018-0184-3). A low MSS score (0-2) served as a surrogate for survival while mice that reached the score 3 were defined as critically ill and were euthanized.
Statistical analyses—For survival experiments, Gehan-Breslow-Wilcoxon test was used for multiple groups comparison. For disease progression Dunnett's multiple comparisons test was used. Differences between groups were considered significant when P<0.05.
A dose response experiment was conducted to test the potential effect of 5aa-OGP in the sepsis model (FIG. 1A). A single injection of 5aa-OGP was administered i.p. at 3 different doses, 0.5 μg/kg, 5 μg/kg and 15 μg/kg, 24 hours prior to the LPS injection; these concentrations were chosen based on the previous works in the lab.
In a separate experiment, mice received a single i.p. injection of the optimal dose of 5aa-OGP (5 μg/kg) and 24 hours later were intraperitoneal (i.p) injected with a lethal dose of LPS. Control mice received a single PBS injection 24 hours prior to LPS injection.
In order to test the therapeutic potential of another CB2 agonist, olorinab was tested in improving survival rate in a mouse model of septic shock induced by LPS injection. Olorinab was administered i.p. 24 hours prior to LPS injection followed by twice-daily injections of olorinab.
The combinations DHEA+olorinab and DHEA+5aa-OGP were tested versus each compound alone and versus vehicle only (no treatment) in LPS-injected mice. The mice received the first dose of treatment 24 hr before LPS injection in the treated groups. All the injections were given i.p., olorinab doses were administered twice a day, DHEA and 5aa-OGP were administered once a day. LPS was given only once.
The combination BCP+Pregnenolone was tested versus each compound alone and versus vehicle only (no treatment) in LPS-injected mice. Mice were pre-treated with ß-Caryophyllene (BCP. 25 mg/kg) and pregnenolone (Preg, 10 mg/kg), separately (FIG. 4A) and in combination 24 and 12 hrs before LPS injection (25 mg/kg) and then every 12 hrs. All the injections were given i.p., twice a day. LPS was given only once. A Murine Septic Score (MSS) was recorded every 12 hours (FIGS. 4A and 4C). Survival (FIGS. 4B and 4D) was defined as MSS<3. * P<0.05, n=7.

COVID-19 patients = COVID-19 patients who did not require oxygen; cited from earlier work
T-cells = assay: T-cell subsets in spleen and bone marrow of treated mice; assay type: in vivo, mouse; details: 5 μg/kg/day daily for 5 days; 12-week-old mice
Excerpt: This is likely due to its strong immunosuppressive actions, including a severe weakening of the humoral/acquired immune system. Our proposed approach uses CB2 agonists that have immunomodulatory roles. On one hand, OGP strongly suppresses the innate immune system, exemplified here as inhibition of cytokine expression by activated macrophages (FIG. 6), and suppression of xylene-induced ear edema (FIG. 7). On the other hand, OGP has no suppressive effects on the adaptive/acquired system, exemplified here by the unaffected number of T cell subsets in mice treated with 5aa-OGP (FIG. 7). 12-week-old mice were injected with 5 μg/kg/day 5aa-OGP, 3 mg/kg/day HU910, or with a vehicle control daily for 5 days. The spleen and bone marrow (BM) were analyzed.

polymicrobial sepsis = details: mice; Oberbeck et al. 2001; cited from earlier work

CCCCCCC(C)(C)c1cc(O)c2c(c1)OC(C)(C)[C@@H]1CC=C(C(=O)O)C[C@@H]21 [Lenabasum]
physician-assessed and patient-reported efficacy outcomes [1]: improvement

C=C1CC/C=C(\C)CC[C@@H]2[C@@H]1CC2(C)C [BCP, β-caryophyllene]
disease progression (MSS), compound alone (LPS-injected mice): slight beneficial effect | survival (MSS<3), compound alone (LPS-injected mice): no significant effect

C[C@@H]1C[C@H]2[C@@H]3CCC4=CC(=O)C=C[C@]4(C)[C@@]3(F)[C@@H](O)C[C@]2(C)[C@@]1(O)C(=O)CO [dexamethasone]
mortality, patients who did not require oxygen (COVID-19 patients): significantly increased mortality

CC(C)(C)[C@@H](CO)NC(=O)c1nn(-c2c[n+]([O-])ccn2)c2c1C[C@@H]1C[C@H]21 [olorinab]
survival percentage at 0.33 mg/kg (LPS-injected mice; 0.33 mg/kg twice daily, i.p.): best survival percentage | survival percentage at 1 mg/kg (LPS-injected mice; 1 mg/kg twice daily, i.p., p<0.05): best survival percentage | survival of LPS treated mice, different doses (LPS-injected mice; olorinab 0.33, 1 or 5 mg/kg i.p. twice daily from 24 h before LPS): beneficial effect

CC(=O)[C@H]1CC[C@H]2[C@@H]3CC=C4C[C@@H](O)CC[C@]4(C)[C@H]3CC[C@]12C [Pregnenolone, pregn-5-en-3β-ol-20-one]
disease progression (MSS), compound alone (LPS-injected mice): no significant effect | survival (MSS<3), compound alone (LPS-injected mice): no significant effect

YGFGG [5aa-OGP]
effect on T-cells in spleen and bone marrow (T-cells): did not affect T-cells

C[C@]12CC[C@H](O)CC1=CC[C@@H]1[C@@H]2CC[C@]2(C)C(=O)CC[C@@H]12 [DHEA, Dehydroepiandrosterone]
TNF-α release (polymicrobial sepsis): reduction | activity of T-cellular immunity (polymicrobial sepsis): improved activity | survival in septic challenge (polymicrobial sepsis): increased survival
